Target: T1, human VR1 (Homo sapiens, UniProt Q8NER1)
T1 construct: expressed in transfected cells
Assay: Inhibition of Ca2+ entry in cells caused by proton, in rat glioma (C6BU1) cells stably expressing human VR1 (Fura 2 fluorescence)
Format: cell-based
Details: inhibition of proton-induced Ca2+ entry
Protocol: The assay for evaluation of VR1 inhibition by the inventive compounds will be described below. The assay was intended to evaluate in vitro inhibition of Ca^2+ entry in cells caused by proton, one of the VR1 agonists.
Rat glioma (C6BU1) cells stably expressing human VR1 were suspended in 20 mM MES buffer (at pH 6.8, contg. 20 mM 2-morpholinoethanesulfonate (referred to as MES hereinafter), 115 mM NaCl, 5 mM KCl, 1 mM MgCl2 and 14 mM D-glucose) to make a cell density of 1×10^6 cells/mL. A fluorescent dye, Fura 2-AMsolution (DojindoCorporate, Cat. No. 343-05401) was added to the suspension to make a 5 μM concentration thereof. Further, Pluronic F-127 (Wako Pure Chemical Industries, Ltd., Cat. No. P6866) was added to make a 0.1% content thereof. Then, the suspension was incubated at 37° C. for 30 min. The cells were harvested and washed three times with 20 mM MES buffer. The cells were suspended again to make a cell density of 5×10^5 cells/mL. A 500-μL portion of the suspension was taken with a cuvette (MC MEDICAL, INC., Cat. No. SSR3121), to which 10 μL of 20 mM MES buffer containing 250 mM CaCl2 was added to incorporate Ca^2+ into the cells. At the same time, 5 μL of a test compound solution (in a range of 100 μM to 10 nM in DMSO) was also added to provide a final concentration thereof in a range of 1 μM to 0.1 nM. Alternatively, 5 μL of DMSO was added as control to provide a final concentration of 1% DMSO. The suspension was set in an intracellular ionometer (CAF-110; JASCO) 10 min after those additions. The cells were stimulated with protons by addition of 60 μL of 20 mM MES buffer at pH 1.1 to the suspension to set its pH at 5.5. The activity of the test compound was determined as a difference between the minimum of fluorescence intensity before agonist stimulation and its maximum after the stimulation. The value of IC50 was derived from percentage of inhibition by the test compound compared with the control.
In the tables, the symbol “++” indicates an IC50 value less than 100 nM and the symbol “+” indicates an IC50 value of 100 nM to 1,000 nM inclusive.

T1 sequence (Q8NER1 whole entry): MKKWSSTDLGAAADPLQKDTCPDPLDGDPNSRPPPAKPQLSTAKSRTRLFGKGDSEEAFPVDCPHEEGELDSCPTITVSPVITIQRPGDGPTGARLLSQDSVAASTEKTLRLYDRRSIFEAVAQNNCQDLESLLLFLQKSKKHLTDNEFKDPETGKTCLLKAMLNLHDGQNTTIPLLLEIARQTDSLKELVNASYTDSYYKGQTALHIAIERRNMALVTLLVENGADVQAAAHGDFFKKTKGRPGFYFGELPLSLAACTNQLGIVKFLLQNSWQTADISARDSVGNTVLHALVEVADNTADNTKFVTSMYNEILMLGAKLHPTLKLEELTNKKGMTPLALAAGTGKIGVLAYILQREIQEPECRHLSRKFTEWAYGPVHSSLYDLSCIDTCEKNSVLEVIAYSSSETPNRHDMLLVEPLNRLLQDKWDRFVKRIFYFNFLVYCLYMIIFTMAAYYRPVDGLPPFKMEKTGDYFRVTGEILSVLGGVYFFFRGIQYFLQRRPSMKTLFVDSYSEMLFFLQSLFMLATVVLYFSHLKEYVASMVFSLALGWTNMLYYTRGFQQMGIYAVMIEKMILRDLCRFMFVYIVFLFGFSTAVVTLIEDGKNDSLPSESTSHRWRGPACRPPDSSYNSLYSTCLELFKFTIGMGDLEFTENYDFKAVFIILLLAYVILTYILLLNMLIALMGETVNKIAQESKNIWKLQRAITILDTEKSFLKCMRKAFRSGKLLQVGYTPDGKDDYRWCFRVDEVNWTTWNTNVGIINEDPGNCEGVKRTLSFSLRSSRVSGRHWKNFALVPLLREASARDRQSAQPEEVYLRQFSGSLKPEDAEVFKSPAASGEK

IC50	Structure (SMILES)
< 100 nM	COCC1CCN(c2ccc(NC(=O)c3cccc4c3OCCN4c3ccc(C)cn3)cc2F)CC1 [Example 1-071]
< 100 nM	COC1CCN(c2ccc(NC(=O)c3cccc4c3OCCN4c3ccc(C)cn3)cc2F)C1 (centres unmarked) [Example 1-072]
< 100 nM	COC(=O)c1cc(NC(=O)c2cccc3c2OCCN3c2ccc(C)cn2)ccc1OCC(C)C [Example 1-073]
100 to 1000 nM	Cc1ccc(N2CCOc3c(C(=O)Nc4ccc(OCC(C)C)c(C(N)=O)c4)cccc32)nc1 [Example 1-075]
100 to 1000 nM	CNC(=O)c1cc(NC(=O)c2cccc3c2OCCN3c2ccc(C)cn2)ccc1OCC(C)C [Example 1-076]
100 to 1000 nM	Cc1ccc(N2CCOc3c(C(=O)Nc4ccc(OCC(C)C)c(C(=O)N(C)C)c4)cccc32)nc1 [Example 1-077]
< 100 nM	CC(=O)c1ccc(NC(=O)c2cccc3c2OCCN3c2ccc(C)cn2)cc1 [Example 1-078]
< 100 nM	CC(=O)c1cc(NC(=O)c2cccc3c2OCCN3c2ccc(C)cn2)ccc1Cl [Example 1-080]
< 100 nM	Cc1ccc(N2CCOc3c(C(=O)Nc4ccc(Cl)c(C(C)(C)C)c4)cccc32)nc1 [Example 1-081]
< 100 nM	COC(C)(C)c1ccc(NC(=O)c2cccc3c2OCCN3c2ccc(C)cn2)cc1 [Example 1-082]
< 100 nM	COc1cc(NC(=O)c2cccc3c2OCCN3c2ccc(C)cn2)ccc1Cl [Example 1-083]
< 100 nM	CCCOc1ccc(NC(=O)c2cccc3c2OCCN3c2ccc(C)cn2)cc1 [Example 1-084]
< 100 nM	CCCOc1ccc(NC(=O)c2cccc3c2OCCN3c2ccc(C)cn2)cc1F [Example 1-085]
< 100 nM	CCOc1ccc(NC(=O)c2cccc3c2OCCN3c2ccc(C)cn2)cc1F [Example 1-086]
< 100 nM	CCOc1cc(NC(=O)c2cccc3c2OCCN3c2ccc(C)cn2)ccc1C [Example 1-087]
< 100 nM	COCCOc1cc(NC(=O)c2cccc3c2OCCN3c2ccc(C)cn2)ccc1C [Example 1-089]
< 100 nM	COCC1CCCCN1c1ccc(NC(=O)c2cccc3c2OCCN3c2ccc(C)cn2)cc1F (centres unmarked) [Example 1-090]
< 100 nM	Cc1ccc(N2CCOc3c(C(=O)Nc4ccc(Cl)cc4)cccc32)nc1 [Example 1-091]
< 100 nM	Cc1ccc(N2CCOc3c(C(=O)Nc4ccc(C)c(F)c4)cccc32)nc1 [Example 1-092]
100 to 1000 nM	Cc1ccc(N2CCOc3c(C(=O)Nc4ccc(Cl)nc4)cccc32)nc1 [Example 1-093]
< 100 nM	CCOc1ccc(NC(=O)c2cccc3c2OCCN3c2ncccc2Cl)cc1 [Example 1-094]
< 100 nM	O=C(Nc1ccc(N2CCCCC2)c(F)c1)c1cccc2c1OCCN2c1ncccc1Cl [Example 1-095]
100 to 1000 nM	O=C(N[C@H]1CC[C@H](OC2CCCC2)CC1)c1cccc2c1OCCN2c1ncccc1Cl [Example 1-098]

IC50	Structure (SMILES)
100 to 1000 nM	O=C(N[C@H]1CC[C@H](OC2CCCCC2)CC1)c1cccc2c1OCCN2c1ncccc1Cl [Example 1-099]
< 100 nM	O=C(Nc1ccc(C(F)(F)F)cc1)c1cccc2c1OCCN2c1ncccc1Cl [Example 1-100]
< 100 nM	COC1CCN(c2ccc(NC(=O)c3cccc4c3OCCN4c3ncccc3Cl)cc2F)CC1 [Example 1-101]
< 100 nM	CCOC1CCN(c2ccc(NC(=O)c3cccc4c3OCCN4c3ncccc3Cl)cc2F)CC1 [Example 1-102]
< 100 nM	CC(C)OC1CCN(c2ccc(NC(=O)c3cccc4c3OCCN4c3ncccc3Cl)cc2F)CC1 [Example 1-103]
< 100 nM	CC(C)CNc1ccc(NC(=O)c2cccc3c2OCCN3c2ncccc2Cl)cc1F [Example 1-104]
100 to 1000 nM	Cc1ccc(N2CCOc3c(C(=O)N[C@H]4CC[C@H](OC(C)C)CC4)cccc32)nc1 [Example 1-106]
< 100 nM	Cc1ccc(N2CCOc3c(C(=O)N[C@H]4CC[C@H](OC5CCCCC5)CC4)cccc32)nc1 [Example 1-107]
< 100 nM	Cc1ccc(N2CCOc3c(C(=O)N[C@H]4CC[C@H](OCC5CCCCC5)CC4)cccc32)nc1 [Example 1-119]
< 100 nM	CCOc1ccc(NC(=O)c2cccc3c2OCCN3c2ccc(Cl)cn2)cc1 [Example 1-120]
< 100 nM	O=C(Nc1ccc(Cl)cc1)c1cccc2c1OCCN2c1ccc(Cl)cn1 [Example 1-121]
< 100 nM	COC1CCN(c2ccc(NC(=O)c3cccc4c3OCCN4c3ccc(Cl)cn3)cc2F)CC1 [Example 1-122]
< 100 nM	O=C(Nc1ccc(C(F)(F)F)cc1)c1cccc2c1OCCN2c1ccc(Cl)cn1 [Example 1-123]
< 100 nM	Cc1ccc(N2CCOc3c(C(=O)NCCc4ccccc4)cccc32)nc1 [Example 1-124]
< 100 nM	Cc1ccc(N2CCOc3c(C(=O)NCCc4ccc(Cl)cc4)cccc32)nc1 [Example 1-125]
< 100 nM	Cc1ccc(N2CCOc3c(C(=O)NCCc4cccc(Cl)c4)cccc32)nc1 [Example 1-126]
< 100 nM	Cc1ccc(N2CCOc3c(C(=O)NCCc4ccccc4Cl)cccc32)nc1 [Example 1-127]
100 to 1000 nM	O=C(O)c1ccc(N2CCOc3c(C(=O)Nc4ccc(C(F)(F)F)cc4)cccc32)nc1 [Example 1-128]
< 100 nM	CC(C)(O)c1cnc(N2CCOc3c(C(=O)Nc4ccc(C(F)(F)F)cc4)cccc32)c(Cl)c1 [Example 1-129]
< 100 nM	CC(O)c1cnc(N2CCOc3c(C(=O)Nc4ccc(C(F)(F)F)cc4)cccc32)c(Cl)c1 (centres unmarked) [Example 1-130]
100 to 1000 nM	O=C(O)c1cnc(N2CCOc3c(C(=O)Nc4ccc(C(F)(F)F)c(F)c4)cccc32)c(Cl)c1 [Example 1-131]
100 to 1000 nM	COC(=O)c1ccc(N2CCOc3c(C(=O)Nc4ccc(C(C)(C)C)cc4)cccc32)nc1 [Example 1-132]
100 to 1000 nM	CC(C)(C)c1ccc(NC(=O)c2cccc3c2OCCN3c2ccc(C(=O)O)cn2)cc1 [Example 1-133]

IC50	Structure (SMILES)
< 100 nM	O=C(O)c1cnc(N2CCOc3c(C(=O)Nc4ccc(C(F)(F)F)cc4)cccc32)c(Cl)c1 [Example 1-136]
< 100 nM	CC(C)(C)c1ccc(NC(=O)c2cccc3c2OCCN3c2ccc([N+](=O)[O-])cn2)cc1 [Example 1-140]
< 100 nM	CC(C)(C)c1ccc(NC(=O)c2cccc3c2OCCN3c2ccc(N)cn2)cc1 [Example 1-141]
< 100 nM	COCc1ccc(N2CCOc3c(C(=O)Nc4ccc(C(F)(F)F)cc4)cccc32)nc1 [Example 1-143]
< 100 nM	CCOc1ccc(N2CCOc3c(C(=O)Nc4ccc(C(F)(F)F)cc4)cccc32)nc1 [Example 1-144]
< 100 nM	COc1cnc(N2CCOc3c(C(=O)Nc4ccc(C(F)(F)F)cc4)cccc32)c(Cl)c1 [Example 1-145]
< 100 nM	O=C(Nc1ccc(C(F)(F)F)cc1)c1cccc2c1OCCN2c1ccc(O)cn1 [Example 1-146]
< 100 nM	COc1ccc(N2CCOc3c(C(=O)Nc4ccc(C(F)(F)F)cc4)cccc32)nc1 [Example 1-147]
< 100 nM	CC(C)(C)c1ccc(NC(=O)c2cccc3c2OCCN3c2cc(Cl)ccn2)cc1 [Example 1-148]
< 100 nM	O=C(Nc1ccc(C(F)(F)F)cc1)c1cccc2c1OCCN2c1ccc(F)cn1 [Example 1-149]
< 100 nM	O=C(Nc1ccc(C(F)(F)F)cc1)c1cccc2c1OCCN2c1ncc(F)cc1F [Example 1-150]
< 100 nM	COc1cccnc1N1CCOc2c(C(=O)Nc3ccc(C(C)(C)C)cc3)cccc21 [Example 1-151]
100 to 1000 nM	Cc1ccc(N2CCOc3c(C(=O)NN4CCC(C(C)(C)C)CC4)cccc32)nc1 [Example 1-152]
100 to 1000 nM	O=C(Nc1ccc(C(F)(F)F)cc1)c1cccc2c1OCCN2c1ccc(OCCO)cn1 [Example 1-153]
< 100 nM	O=C(Nc1ccc(C(F)(F)F)cc1)c1cccc2c1OCCN2c1ncc(CCO)cc1Cl [Example 1-154]
< 100 nM	Cc1ccc(N2CCOc3c(C(=O)Nc4ccc(OCC(C)(C)O)cc4)cccc32)nc1 [Example 1-155]
< 100 nM	Cc1ccc(N2CCOc3c(C(=O)Nc4ccc(N5CCCCC5)c(F)c4)cccc32)nc1 [Example 1-156]
< 100 nM	Cc1ccc(N2CCOc3c(C(=O)Nc4ccc(N5CCOCC5)c(F)c4)cccc32)nc1 [Example 1-157]
< 100 nM	Cc1ccc(N2CCOc3c(C(=O)Nc4ccc(F)c(F)c4)cccc32)nc1 [Example 1-158]
< 100 nM	COc1ccc(NC(=O)c2cccc3c2OCCN3c2ccc(C)cn2)cc1F [Example 1-159]
< 100 nM	CCOc1ccc(NC(=O)c2cccc3c2OCCN3c2ccc(C)cn2)cc1 [Example 1-160]
< 100 nM	Cc1ccc(N2CCOc3c(C(=O)Nc4ccc5c(c4)N(C)CCC5)cccc32)nc1 [Example 1-162]

Reference: patent US8008292B2, “Condensed benzamide compounds and inhibitors of vanilloid receptor subtype 1 (VR1) activity” (Japan Tobacco Inc., priority 2004, dated 2011)
